Our source for the AC50 values is PubChem BioAssay AID743417 (Broad Institute, 2014).

Results filed as inconclusive are left out. Calls of active or inactive are those of the source.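 How the source made its calls: active means compounds lowering the luciferase signal with a fitted half-maximal dose at most twice their top valid dose (cut at about 30 µM in these data); inconclusive means flat fits with moderate signal loss, or poor fits; inactive means the rest.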

This assay concerns Clone20 osteoblast Shn3 3'UTR firefly luciferase, 24 h. Description: Schnurri-3 3'UTR-luciferase signal suppressors – cell-based, Clone20 osteoblasts, luminescence, dry powder, set 2, dose response (AID 743417).
For the molecule `CS(=O)(=O)c1ccc(C(=O)OCC(=O)N2CCN(CCC3CCCCC3)CC2)cc1[N+](=O)[O-]`, the AC50 is 2410 nM.

On to `O=C1C=CC(=O)N1CCNc1ncc(C(F)(F)F)cc1Cl`, for which the AC50 was 947 nM.

For the molecule `Cc1nc(NC(C)c2ccccc2)c2oc3ccccc3c2n1` (stereo unspecified), the half-maximal activity concentration (AC50) was 3060 nM.

Take `O=C(c1cc(COc2ccc3ncccc3c2)on1)N1CCCCCC1`: the AC50 was 703 nM.

On to `Cc1ccc(Oc2c(C(N)=O)cc([N+](=O)[O-])cc2[N+](=O)[O-])cc1`, for which the half-maximal activity concentration (AC50) was 11900 nM.

Take `COc1cc(NS(=O)(=O)c2ccc(C)cc2)c2ncccc2c1`: the AC50 was 3350 nM.

As for `O=C(CSc1n[nH]c(-c2ccccn2)n1)Nc1cccc(Cl)c1`, the AC50 is 2900 nM.

Regarding `CCc1ccc(OCCNc2cc(N3CCNC(C)C3)ccc2[N+](=O)[O-])cc1` (stereo unspecified), the AC50 is 15600 nM.

Take `COc1ccc(CS(=O)(=O)/C(Cl)=C(/Cl)C(=O)Nc2ccc(OC)nc2)cc1`: the AC50 is less than 260 nM.

Take `Cc1ccc(C(C)C)cc1NC(=O)Nc1ccc([N+](=O)[O-])cc1`: the AC50 is 7190 nM.

Turning to `CN(C)S(=O)(=O)c1cccc(NC(=O)c2cccc(S(=O)(=O)N3CCc4ccccc43)c2)c1`, the half-maximal activity concentration (AC50) was 3920 nM.

Turning to `CN(CCO)c1cc(Sc2nc3ccccc3s2)c2nonc2c1[N+](=O)[O-]`, the AC50 was 1550 nM.

As for `COC(=O)c1c(-c2cccc3ccccc23)csc1NC(=O)Cc1ccc(OC)c(OC)c1`, the concentration at half-maximal activity (AC50) is 5430 nM.

Turning to `O=C(Nc1cccc(F)c1)c1cc(S(=O)(=O)NCCC2=CCCCC2)ccc1F`, the AC50 is 4160 nM.

On to `CN(Cc1ccc(OCC(O)CN2CCCCC2)cc1)Cc1ccnc2ccccc12` (stereo unspecified), for which the AC50 is 1210 nM.

`Cc1cc(C)c(C)c(S(=O)(=O)N2CCN(c3ncnc4ccccc34)CC2)c1C`: the AC50 is 1460 nM.

Consider `C=CCC[C@H](Cc1ccc(F)cc1)C(=O)OC[C@H](Cc1c[nH]c2ccccc12)NC(=O)[C@@H](CC=C)CC(=O)N[C@H](CO)Cc1ccccc1`, for which the half-maximal activity concentration (AC50) was 4440 nM.

Turning to `O=C(c1n[nH]c(=O)c2ccccc12)N1CCN(C2c3ccccc3-c3ccccc32)CC1`, the AC50 is 7690 nM.

With `Cc1ccc(-c2nc(NC(=O)c3nn(C)cc3[N+](=O)[O-])sc2C)cc1`, the AC50 was 1300 nM.

With `CCn1c(=O)c(C(=O)Nc2nc3ccccc3[nH]2)c(O)c2ccccc21`, the AC50 was 6010 nM.

In the case of `CCOC(=O)c1sc(NC(=O)CCCn2nc([N+](=O)[O-])c(Cl)c2C)c(C(=O)OCC)c1C`, the AC50 was 6340 nM.

Regarding `c1ccc(-c2ccc(-c3nc(-c4ccccn4)no3)cc2)cc1`, the AC50 is 3750 nM.

`Cc1cc(NNC(=O)c2cccc(C(F)(F)F)c2)nc2c1c(C)nn2C`: the AC50 was 2430 nM.

On to `CC1(C)CC[C@]2(C(=O)n3ccnc3)CC[C@]3(C)[C@H](C(=O)C=C4[C@@]5(C)C=C(C#N)C(=O)C(C)(C)[C@@H]5CC[C@]43C)[C@@H]2C1`, for which the AC50 was less than 260 nM.

For `Cc1onc(-c2ccccc2Cl)c1C(=O)N1CCC(Cc2ccccc2)CC1`, the AC50 is 2290 nM.

As to `COc1cc(CN2CCc3ccccc3C2)ccc1O`, the AC50 was 912 nM.

For the molecule `OC[C@@H]1CN(Cc2ccc(-c3ccccc3)cc2)C[C@H](n2cnc3c(NCc4ccc(F)cc4)ncnc32)O1`, the half-maximal activity concentration (AC50) was 1580 nM.

With `O=C(Cn1cnc2ccccc21)Nc1cccc(S(=O)(=O)N2CCCC2)c1`, the AC50 is 2770 nM.

With `NC(=O)CC(NC(=O)c1ccc(Br)cc1)c1ccc(N2CCCCCC2)c([N+](=O)[O-])c1` (stereo unspecified), the AC50 is 7660 nM.

Take `C=C1C(=O)C23CCC4C(C)(C(=O)OC)CCCC4(C)C2CCC1(O)C3` (stereo unspecified): the AC50 was 976 nM.

`C=C1C(=O)[C@]23C[C@H]1CCC2[C@]1(C)CCC[C@@](C)(C(=O)O)C1C[C@@H]3O` (stereo partly specified): the half-maximal activity concentration (AC50) is 1200 nM.

With `CCCC(=O)NC(c1ccc(N(C)C)cc1)c1ccc2cccnc2c1O` (stereo unspecified), the AC50 is 916 nM.

On to `COc1ccccc1N1CCN(c2ncc(C(=O)N3CCN(c4cccc(Cl)c4)CC3)c3ccccc23)CC1`, for which the concentration at half-maximal activity (AC50) is 572 nM.

In the case of `CC(C)(C)c1ccc(NC(=O)COc2ccc(-n3ccnc3)cc2)cc1`, the AC50 is 5270 nM.

As to `Cc1ccc2nc(-c3cccc(SC4CCCCC4)c3)c(NCc3ccccc3)n2c1`, the AC50 was 3530 nM.

Turning to `O=C(CN1C(=O)c2ccccc2S1(=O)=O)c1ccc(Cl)cc1Cl`, the AC50 is 3530 nM.

In the case of `C[C@]12CC[C@H](O)CC1=CCC1C2CC[C@@]2(C)C1CCC21OCCO1` (stereo partly specified), the AC50 was 27300 nM.

`CC1Cc2cc(S(=O)(=O)N3CCN(c4ccc(Cl)cc4)CC3)ccc2N1C(=O)C1CC1` (stereo unspecified): the AC50 was 4260 nM.

On to `O=C(Nc1ccc(F)cc1)Nc1cc(OCC(F)(F)F)cc(OCC(F)(F)F)c1`, for which the AC50 was 2460 nM.

With `Cc1cccc(Cn2c(NCCO)nc3c2c(=O)n(C)c(=O)n3C)c1`, the AC50 is 528 nM.

For the molecule `NS(=O)(=O)c1ccc(CCNc2nn3c(-c4cccc(OC(F)(F)F)c4)cnc3s2)cc1`, the AC50 was 3930 nM.

On to `CC(C)CC(=O)NC(=S)Nc1ccc(N2CCN(C(=O)c3cccs3)CC2)cc1`, for which the AC50 was 2540 nM.

For the molecule `CC(NNC(=S)N1CCN(c2ccccn2)CC1)c1nccc2ccccc12` (stereo unspecified), the AC50 was less than 260 nM.

In the case of `COc1cccc(-n2c(C)nc3c(cnn3-c3ccc(Cl)cc3)c2=O)c1`, the AC50 is 391 nM.

For the molecule `COc1ccc(C2=NS(=O)(=O)N(C)C(C(=O)N3CCc4ccccc4C3)=C2)cc1OC`, the AC50 was 4990 nM.

`Clc1cc2cccnc2c2ncccc12`: the AC50 is 4060 nM.

As to `COc1ccc2c(CC(=O)OCC(=O)N(C)c3c(N)n(Cc4ccccc4)c(=O)[nH]c3=O)coc2c1`, the AC50 was 21200 nM.

Consider `CN1CCN(c2ccc(-c3ccc4ccccc4n3)cc2)CC1`, for which the AC50 is 2730 nM.

Turning to `CN1C(=O)c2cccc(NCCCCCCN3C(=O)c4ccccc4C3=O)c2C1=O`, the AC50 was 5570 nM.

With `CCCC(c1nnnn1Cc1ccc(OC)cc1)N1CCN(c2ccccc2)CC1` (stereo unspecified), the AC50 is 31900 nM.

For `CCOC(=O)C1CCN(C(=O)c2ccc(OCC(=O)Nc3cccc(C(F)(F)F)c3)c(OC)c2)CC1`, the AC50 is 1750 nM.

On to `O=[N+]([O-])c1cccnc1S(=O)(=O)c1ccccc1`, for which the AC50 was 4790 nM.

For the molecule `CCCCCn1c(N2CCN(c3cccc(Cl)c3)CC2)nc2c1c(=O)[nH]c(=O)n2C`, the AC50 was 21800 nM.

As for `Cc1ccc(S(=O)(=O)NCc2ccc(C(=O)N3CCN(c4ccc([N+](=O)[O-])cc4)CC3)cc2)cc1`, the AC50 was 3790 nM.

As for `CC(C)C(=O)NC(c1ccc(Cl)cc1Cl)c1ccc2cccnc2c1O` (stereo unspecified), the AC50 is 691 nM.

`CCN(c1ccccc1)S(=O)(=O)c1ccc(Cl)c(NC(=O)CN(C)Cc2cccc(F)c2)c1`: the concentration at half-maximal activity (AC50) was 8780 nM.

For `CCC(C)C(NC(=O)CCCNC(=O)CCC(=O)OC1O[C@H]2OC3(C)CC[C@H]4[C@H](C)CCC(C1C)C24OO3)C(=O)O` (stereo partly specified), the AC50 is 1020 nM.

For `O=C1C(Br)=C(c2ccccc2)C(c2ccccc2)=C1c1ccccc1`, the concentration at half-maximal activity (AC50) was 460 nM.

On to `COc1cccc(CNc2ncnc3cc(Cl)ccc23)c1`, for which the AC50 is 3730 nM.

As for `O=C(Nc1ccc2nc3n(c(=O)c2c1)CCCC3)c1cc([N+](=O)[O-])ccc1F`, the AC50 is 361 nM.

For the molecule `CS(=O)(=O)c1ccc(C(=O)OCC(=O)NCc2cccs2)cc1[N+](=O)[O-]`, the AC50 is 2070 nM.

In the case of `CCCCN1C2=NCCCN2c2cc(C)c(C)cc21`, the AC50 is 803 nM.

In the case of `CC(=O)OCCNc1cc(Sc2nc3ccccc3[nH]2)c2nonc2c1[N+](=O)[O-]`, the AC50 is 1860 nM.

For the molecule `COc1ccc(CCNC(=O)CCC(=O)N2CCOc3ccc(Cl)cc32)cc1OC`, the AC50 is > 70000 nM (inactive).

In the case of `CCOC(=O)c1ccc(NC(=O)c2nc(S(=O)(=O)Cc3ccccc3)ncc2Cl)cc1`, the half-maximal activity concentration (AC50) was 572 nM.

For the molecule `Cn1nnnc1Sc1ncnc2scc(-c3ccc(Br)cc3)c12`, the AC50 was 334 nM.

As to `COc1ccccc1N/C(N)=N/c1nc(CSc2ccc(C)cc2)cc(=O)[nH]1`, the concentration at half-maximal activity (AC50) is 2950 nM.

Turning to `CCOc1cc(/C=C2\CN(CC)C/C(=C\c3ccc(O)c(OCC)c3)C2=O)ccc1O`, the AC50 was 2120 nM.

Turning to `CN1OC[C@@H]2CN[C@H](c3ccc(-c4cc5ccccc5o4)cc3)C[C@@H]21`, the half-maximal activity concentration (AC50) is less than 260 nM.

As for `Cc1cc(Cl)n2c(nc3ccccc32)c1C#N`, the half-maximal activity concentration (AC50) is 1850 nM.

For `CCCCC(=O)NC(c1ccc(OC)cc1)c1ccc2cccnc2c1O` (stereo unspecified), the AC50 was 2280 nM.

On to `O=C(Nc1ccccc1)Nc1cc(OCC(F)(F)F)cc(OCC(F)(F)F)c1`, for which the AC50 was 6400 nM.

As to `CCOc1cc(CNCCCN2CCOCC2)cc(Br)c1OCc1ccccc1Cl`, the AC50 is 9310 nM.

As to `O=C1[C@H]2[C@@H](c3ccc(F)cc3)N3C(=O)N(c4ccccc4)C(=O)[C@@]3(Cc3ccccc3)[C@H]2C(=O)N1C1CCCCC1`, the AC50 is > 70000 nM (inactive).

On to `CCN(CC)S(=O)(=O)c1cc(NC(=O)CNc2cccc(S(=O)(=O)N3CCCC3)c2)ccc1C`, for which the AC50 is 648 nM.

Consider `Cc1sc2ncnc(NCC(C)(C)N3CCOCC3)c2c1C`, for which the AC50 is 1360 nM.

Regarding `CCOC(=O)c1c(NC(=O)C2c3ccccc3Oc3ccccc32)sc(C(C)=O)c1C`, the AC50 is 4670 nM.

Turning to `O=S(=O)(c1ccc(Cl)cc1)N1CCN(c2ncnc3sccc23)CC1`, the AC50 was 3040 nM.

In the case of `CC(=O)Nc1ccc(NC(=O)c2nc(S(=O)(=O)Cc3cccc(C)c3)ncc2Cl)cc1`, the AC50 was 528 nM.

As to `O=C(c1cccc(S(=O)(=O)N2CCN(c3ccc(F)cc3)CC2)c1)N1CCCC(C(F)(F)F)C1` (stereo unspecified), the AC50 is 942 nM.

As for `CCCCOCCCNc1ncnc2c1[nH]c1ccccc12`, the AC50 was 1050 nM.

In the case of `C=CCNc1nc(-c2ccccn2)nnc1-c1ccccc1`, the half-maximal activity concentration (AC50) is 3170 nM.

As to `COc1ccccc1NC(=O)Nc1nc(C(N)Cc2ccc(C(F)(F)F)cc2)cs1` (stereo unspecified), the AC50 was 10300 nM.

With `CC(=O)O[C@H]1CC[C@@]2(C)C(=CC[C@H]3[C@@H]4CC[C@H](C(C)=O)[C@@]4(C)CC[C@@H]32)C1`, the AC50 is 28500 nM.

As for `CN(C)CCCNc1c2ccccc2nc2ccccc12`, the AC50 is 3220 nM.

Take `O=C(Cc1ccc(Cl)cc1Cl)Nc1ccncc1`: the AC50 is 2560 nM.

For `CCCSc1nnc(CSc2nc3ccccc3s2)n1-c1ccccc1`, the AC50 was 7050 nM.

`Cc1cc(C2=NNC(=NC3CC3)SC2)c(C)n1-c1ccccc1F`: the AC50 is less than 260 nM.

With `O=C1CSc2ccc(C(=O)Nc3cccc(S(=O)(=O)Nc4ccc(Br)cc4)c3)cc2N1`, the AC50 was 3080 nM.

For `CCOc1cc(C)c(S(=O)(=O)Nc2ccc3cn[nH]c3c2)cc1C`, the AC50 was 4890 nM.

As for `CCOc1ccc(Cn2nnc(C(=O)Nc3cc(OC)cc(OC)c3)c2N)cc1`, the AC50 was 5300 nM.

One may read the AC50 as the concentration at which the activity in the assay is half-maximal.
